Tested on: DIO mice (C57BL/6NTac, high fat diet)
Assay: body weight study in diet-induced obese (DIO) mice, 56 days
Assay type: in vivo, mouse
Settings: DA 92.4 mg/kg, CQL 50 mg/kg, gavage BID
Experimental: This example provides results of a study of DA plus another compound (CQL) on body weight in diet-induced (DIO) mice. Adult C57BL/6NTac mice were fed with a high fat diet (60%). Vehicle group (N=15) were treated with distilled water by gavage BID, CQL (N=15) were treated at 50 mg/kg by gavage BID, and DA (N=15) at a dose of 92.4 mg/kg by gavage BID. The study period was for 56 days+2-3 days testing period afterward. […] Metabolic biomarkers were measured on days 28 and 56. Cytokine analysis on Days 28 and 56. Serum levels of GLP-1, GLP-2, and CCK at 1 h after dosing on Days 1 and 56, and at 2 h after dosing on Day 7 (dosing (>6 h fasting prior to dosing until after blood collection); and serum level of PPY on Day 56.

Oc1c(I)cc(Cl)c2cccnc12 [CQL]
serum HbA1c level at Day 28: significantly reduced | serum HbA1c level at Day 56: considerably increased | daily water intake at Day 28 (compared to vehicle): significantly decreased

Reference: patent US20220193013A1, “Pharmaceutical Composition for Treatment or Prevention of Multiple Inflammatory Disorders” (priority 2020, published 2022)
